For 4 molecules, viability, T/C and IC50 results are on record in PubChem BioAssay AID1963831 (Molecular Pharmacology Branch, DTP, NCI, 2024).

The test system of this experiment is 889142-216-R-J1-PDC complex spheroid viability. Description: Anticancer human tumor 889142-216-R-J1-PDC patient-derived bladder carcinoma cell line growth inhibition [POLQ]. The conditions noted are these: for viability, T/C: stronger effect = lower value. The gist of the method: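 Complex spheroid viability model combining PDC tumour cells with endothelial (HUVEC) and MSC stromal cells. Novobiocin, ART-558 or RP6685 were tested singly and in combination with standard and investigational anticancer drugs. Each was titrated in half-log steps from near clinical Cmax, or from 10 microM where Cmax was unknown.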

“And” between values parts separate entries of the source, which are not always exact repeats. Identical values can stand only once. Where only a bound is given, the exact number is not on record here.
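Note: spheroids exposed to compounds for seven days.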
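Throughout, for viability, T/C: 100% = DMSO vehicle control viability.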

The term viability, T/C denotes the result in the treated group divided by that in the control group, in per cent. A word on the IC50: it is the concentration needed to halve the response being measured. Take `Cn1ncnc1[C@H]1c2n[nH]c(=O)c3cc(F)cc(c23)N[C@@H]1c1ccc(F)cc1`: the viability, T/C (compound 0.000316 µM) was 116% and 120% and 92.5%; the viability, T/C (compound 0.001 µM) is 81.2% and 90.7% and 78%; the viability, T/C (compound 0.00316 µM) was 84.9% and 99.1% and 83.2%; the viability, T/C (compound 0.01 µM) was 93.2% and 89.5% and 78.9%; the viability, T/C (compound 0.0316 µM) was 87.3% and 104% and 84.8%; the viability, T/C (compound 0.1 µM) is 76.4% and 64.8% and 72.8%. Where the note is “curve of compound”, the IC50 was above 100 nM.
Regarding `COc1cccc2c1C(=O)c1c(O)c3c(c(O)c1C2=O)CC(O)(C(=O)CO)CC3OC1CC(N)C(O)C(C)O1` (centres undefined), the viability, T/C is 59.4% and 71.1% and 60.1% (compound 0.0316 µM); 61.1% and 79% and 56.2% (compound 0.1 µM); 46.8% and 46.4% and 36.7% (compound 0.316 µM); 2.75% and 11.6% and 1.69% (compound 1 µM); 0.71% and 1.11% and 0.66% (compound 3.16 µM); 1% and 1.39% and 1.05% (compound 10 µM). The IC50 (curve of compound) was 241 nM and 290 nM and 153 nM.
Regarding `Cc1cccc(N(C)C(=O)C2C(O)CCN2c2nc(C)cc(C(F)(F)F)c2C#N)c1` (centres undefined), the viability, T/C (compound 3.16 µM) is 94.3% [middle of 13 runs]. Also, the IC50 (compound alone, run of 01/08/2024) was above 10000 nM and the IC50 (compound alone, run of 01/19/2024) is above 10000 nM.
Consider `CC1COCCN1c1cc(C2(S(C)(=N)=O)CC2)nc(-c2ccnc3[nH]ccc23)n1` (centres undefined), for which the viability, T/C is, setting by setting: (compound 0.0316 µM) 125% and 90% and 99.5%; (compound 0.1 µM) 92.6% and 98.3% and 102%; (compound 0.316 µM) 98.3% and 75.8% and 74.6%; (compound 1 µM) 53.5% and 71.3% and 53.6%; (compound 3.16 µM) 51.8% and 48.8% and 44.5%; (compound 10 µM) 45.6% and 58% and 46.8%. Moreover, the IC50 (curve of compound) is 3750 nM and > 10000 nM and 1280 nM.
